Experimental data as given in article PMC8011784, “Chronic peptide-based GIP receptor inhibition exhibits modest glucose metabolic changes in mice when administered either alone or combined with GLP-1 agonism” (PLoS ONE, 2021).

What was measured:
Format in all cases: in vivo, mouse
DIO mice [1] = assay: Chronic GIPA-1 study: OGTT and insulin responses in DIO mice; conditions: n = 10
Procedure: (§1) 23-week-old male C57BL/6JRj mice (n = 40), fed a HFD (SSNIFF® diet #12492[60% fat, 20% protein, 20% carbohydrate]) for 14 weeks, were distributed into 4 test groups and received daily either vehicle, liraglutide (0.2 mg/kg/day), GIPA-1 (~4.5 mg/kg/day) or liraglutide + GIPA-1 for 4 weeks while still maintained on HFD. GIPA-1 was delivered using minipumps in order to achieve sufficient GIPR antagonism based on the properties of this peptide (Fig 2A). Liraglutide was dissolved in phosphate-buffered saline (PBS) plus 0.1% bovine serum albumin (BSA) (vehicle 1) and GIPA-1 in DMSO/propylene glycol (50/50 volume per volume) (vehicle 2). 100 μL minipumps (Alzet) were filled with GIPA-1 (30 mg/mL) or vehicle 2 and kept in 0.9% saline at 37°C overnight. The minipump was placed subcutaneously through a 1-cm long incision in the neck with the animal under isoflurane anesthesia. Animals were treated with analgesics on day 0–3 (NSAID, carprofen 50 mg/kg SC QD). […] Fasted (4 hrs) blood glucose and insulin levels were measured on study day -3, 14 and 27. […] Blood glucose was measured before their daily dosing and at 0, 15, 30 60, 120, 180 min after glucose administration. Plasma insulin was measured at 0 and 15 min. Whole body weight and food intake were measured throughout the study period. […]
Fig 3 Effects of GIPA-1 and GIPA-2 on oral glucose tolerance and insulin responses in DIO mice. […] Statistical analysis was calculated using two-way ANOVA with Tukey’s post-hoc test and one-way ANOVA with Dunnett’s post-hoc test. *: p< 0.05, **: p < 0.01, ***: p < 0.001, ****: p<0.0001 compared to vehicle.

DIO mice [2] = assay: Chronic GIPA-1 study: fasting blood glucose, plasma insulin and HOMA-IR in DIO mice; conditions: 4 h fasted, liraglutide 0.2 mg/kg/day SC, GIPA-1 ~4.5 mg/kg/day minipump, n = 10, vs vehicle
Procedure: as §1, with “2).” for “2). 100 μL minipumps (Alzet) were filled with GIPA-1 (30 mg/mL) or vehicle 2 and kept in 0.9% saline at 37°C overnight. The minipump was placed subcutaneously through a 1-cm long incision in the neck with the animal under isoflurane anesthesia. Animals were treated with analgesics on day 0–3 (NSAID, carprofen 50 mg/kg SC QD).”
Fasting blood glucose was measured using a BIOSEN c-Line glucose meter (EKF-Diagnostics), insulin was measured using the Meso Scale Diagnostics platform, TG and TC were measured using commercial kits (Roche Diagnostics) on the Cobas C-501 autoanalyzer (Roche), and FFA levels were measured using a Wako Chemicals kit on the Cobas C-501 autoanalyzer, all according to the manufacturers’ instructions. […]

DIO mice [3] = assay: Chronic GIPA-1 study: circulating lipids, liver and fat depots in DIO mice; conditions: day 28, n = 10
Procedure: 23-week-old male C57BL/6JRj mice (n = 40), fed a HFD (SSNIFF® diet #12492[60% fat, 20% protein, 20% carbohydrate]) for 14 weeks, were distributed into 4 test groups and received daily either vehicle, liraglutide (0.2 mg/kg/day), GIPA-1 (~4.5 mg/kg/day) or liraglutide + GIPA-1 for 4 weeks while still maintained on HFD. GIPA-1 was delivered using minipumps in order to achieve sufficient GIPR antagonism based on the properties of this peptide (Fig 2A). Liraglutide was dissolved in phosphate-buffered saline (PBS) plus 0.1% bovine serum albumin (BSA) (vehicle 1) and GIPA-1 in DMSO/propylene glycol (50/50 volume per volume) (vehicle 2). 100 μL minipumps (Alzet) were filled with GIPA-1 (30 mg/mL) or vehicle 2 and kept in 0.9% saline at 37°C overnight. The minipump was placed subcutaneously through a 1-cm long incision in the neck with the animal under isoflurane anesthesia. Animals were treated with analgesics on day 0–3 (NSAID, carprofen […] SC QD). From day 0 (first dose) through day 28, mice received one of the following four treatments per day: (1) vehicle 1 (subcutaneous injection (SC)) and continuous infusion of vehicle 2 via osmotic minipump; (2) 0.2 mg/kg liraglutide (SC) and continuous infusion of vehicle 2 via osmotic minipump; (3) vehicle 1 (SC) and continuous infusion of GIPA-1 (~4.5 mg/kg/day; 56.8 nmol/kg/h) via osmotic minipump; and (4) liraglutide (0.2 mg/kg liraglutide, SC) plus continuous infusion of GIPA-1 (~4.5 mg/kg/day) via osmotic minipump. Dose levels of GIPA-1 were based on targeting plasma exposure levels sufficient to antagonise endogenous GIP and selected based on in vitro antagonism data. Fasted (4 hrs) blood glucose and insulin levels were measured on study day -3, 14 and 27. OGTT was performed on day 21 of the study. On the day of the OGTT the fasted animals received their daily doses of vehicles and liraglutide thirty minutes before receiving a glucose bolus (2 g/kg). Blood glucose was measured before their daily dosing and at 0, 15, 30 60, 120, 180 min after glucose administration. Plasma insulin was measured at 0 and 15 min. Whole body weight and food intake were measured throughout the study period. On the termination day (day 28), liver, epididymal fat depot, mesenteric fat depot, retroperitoneal fat depot and inguinal fat depot were dissected and weighted. Blood collected from the tail vein was used for determination of free fatty acids (FFAs) plasma concentration and blood collected via cardiac puncture was used for determination of terminal plasma triglyceride (TG) and total cholesterol (TC).
Fasting blood glucose was measured using a BIOSEN c-Line glucose meter (EKF-Diagnostics), insulin was measured using the Meso Scale Diagnostics platform, TG and TC were measured using commercial kits (Roche Diagnostics) on the Cobas C-501 autoanalyzer (Roche), and FFA levels were measured using a Wako Chemicals kit on the Cobas C-501 autoanalyzer, all according to the manufacturers’ instructions. Homeostatic model assessment of insulin resistance (HOMA-IR) was calculated using the following equation: [fasting serum glucose (mmol/L) × fasting serum insulin (pmol/L) / 22.5] to assess insulin resistance.
Fig 4 The effect of GIPR antagonism alone or in combination with liraglutide on lipid homeostasis in DIO mice. […] Statistical analysis was calculated using one-way ANOVA with Dunnett’s post-hoc test. *: p< 0.05, **: p < 0.01, ***: p < 0.001, ****: p<0.0001 compared to vehicle. […]

liraglutide
insulin at time 0 of the OGTT (DIO mice [1]; day 21, fasted, GIPA-1 study): liraglutide-induced decrement in insulin at time 0 of the OGTT | baseline blood glucose (-30 min) of OGTT (DIO mice [1]; day 21, GIPA-1 study): lower in the liraglutide group and in the combination group | glucose excursion in OGTT (DIO mice [1]; day 21, oral glucose 2 g/kg, liraglutide 0.2 mg/kg SC, GIPA-1 ~4.5 mg/kg/day minipump): beneficial glucose lowering effects of liraglutide | fasting blood glucose (DIO mice [2]; days 14 and 27): significant reductions for the duration of the study | fasting plasma insulin (DIO mice [2]): reduced in both the liraglutide and combination groups. This was significant for the combination, but not for liraglutide monotherapy | circulating total cholesterol (TC) (DIO mice [3]): significantly reduced circulating TC and liver TG concentrations | liver TG (DIO mice [3]): significantly reduced circulating TC and liver TG concentrations | plasma FFA (DIO mice [3]): no effect on either plasma TG or concentrations of circulating FFA | plasma TG (DIO mice [3]): no effect on either plasma TG or concentrations of circulating FFA | retroperitoneal fat weight (DIO mice [3]): reduced in the GIPA-1 study in both the liraglutide and combination groups
